Source: patent US9808466B2, “Macrocyclic compounds as protein kinase inhibitors” (Fundación Centro Nacional de Investigaciones Oncologicas …, priority 2011, dated 2017)
pIC50: −log10 of the molar value. Read-outs that look alike come from different tables or passages of the source.

Columns and labels:
[1] = target: T1, mTOR (Homo sapiens, UniProt P42345); experiment: mTOR assay (LanthaScreen kinase activity assay); type: biochemical
T1 construct: purchased Invitrogen PV4754
Description: The enzymatic mTOR activity was measured using a LanthaScreen™ kinase activity assay (Invitrogen). The enzyme was purchased from Invitrogen (PV4754), as well as the GFP-labeled substrate (4EBP1-GFP; PV4759) and the Tb-anti-p4EBP1(pThr46) antibody (PV4757). The assay was performed in 50 mM HEPES buffer, pH 7.5, containing 1.5 mM MnCl2, 10 mM MgCl2, 1 mM EGTA, 2.5 mM DTT and 0.01% Tween-20. The concentration of the assay components were the following: 0.24 nM mTOR kinase, 400 nM 4EBP1-GFP, […] and serial dilutions of the compound (inhibitor) to be evaluated. After 1 h incubation at room temperature, 20 mM EDTA was used to stop the reaction and terbium-labeled antibody (4 nM) added to detect phosphorylated product. The antibody associates with the phosphorylated product resulting in an increased TR-FRET value. The TR-FRET value (a dimensionless number) was calculated as the ratio of the acceptor signal (GFP, emission at 520 nm) to the donor signal (terbium, emission at 495 nm). Values were plotted against the inhibitor concentration and fitted to a sigmoid dose-response curve using GraphPad software.

[2] = target: T2, PIM-1 (Homo sapiens, UniProt P11309); experiment: PIM-1 biochemical assay (ADP Hunter)
T2 construct: histidine tag (C); made in house
Description: The biochemical assay to measure PIM-1 activity relies on the ADP Hunter assay kit (DiscoveRx Corp., Cat. #90-0077), that determines the amount of ADP as direct product of the kinase enzyme activity.
The enzyme has been expressed and purified in-house as a recombinant human protein with a C-terminal histidine tag. The protein is active and stable.
Assay conditions were as indicated by the kit manufacturers with the following adaptations for the kinase activity step: • Kinase assay buffer and assay volume stay as recommended (15 mM HEPES, pH 7.4, 20 mM NaCl, 1 mM EGTA, 0.02% Tween 20, 10 mM MgCl2 and 0.1 mg/ml bovine γ-globulins/75 μl assay volume) • Incubation time and temperature: 60 min at 30° C. • PIM-1 concentration: 50 pg/μl • ATP concentration: 100 μM • PIM-1 substrate peptide: PIMtide ([…]) (SEQIDNO. 1) • Peptide concentration: 60 μM • Positive control for kinase activity inhibition: 1-10 μM Staurosporine • DMSO concentration have to stay below 2% during the kinase reaction
Assays were performed in either 96 or 384-well plates. The final outcome of the coupled reactions provided by the kit is the release of the fluorescent product Resorufin and has been measured with a multilabel HTS counter VICTOR V (PerkinElmer) using an excitation filter at 544 nm and an emission filter at 580 nm.

[3] = target: T3, PI3K (p110α/p85α) (Homo sapiens, UniProt P42336); experiment: PI3K activity assay (ADP Hunter Plus); type: biochemical
T3 construct: purchased Carna Biosciences 07CBS-0402A
Description: The kinase activity was measured by using the commercial ADP Hunter™ Plus assay available from DiscoveRx (#33-016), which is a homogeneous assay to measure the accumulation of ADP, a universal product of kinase activity. […] Reaction was carried out for 1 hour at 25° C. Reagent A and B were sequentially added to the wells and plates were incubated for 30 min at 37° C. Fluorescence counts were read in a Victor instrument (Perkin Elmer) with the recommended settings (544 and 580 nm as excitation and emission wavelengths, respectively). Values were normalized against the control activity included for each enzyme (i.e., 100% PI3 kinase activity, without compound). These values were plotted against the inhibitor concentration and were fit to a sigmoid dose-response curve by using the Graphad software.

[4] = read-out: mTOR activity (semi-quantitative IC50)
[5] = read-out: PIM-1 IC50 (in parentheses)
[6] = read-out: PIM-1 activity (semi-quantitative IC50)
[7] = read-out: PI3K alpha IC50 (in parentheses)
[8] = read-out: PI3K alpha activity (semi-quantitative IC50)
[9] = read-out: mTOR activity, IC50 (semi-quantitative class)
[10] = read-out: mTOR actual IC50 (in parentheses)
[11] = PIM1, read-out: PIM-1 activity, IC50 (semi-quantitative class)
[12] = read-out: PI3K alpha activity, IC50 (semi-quantitative class)
[13] = read-out: PI3K alpha actual IC50 (in parentheses)
[14] = PIM1, read-out: PIM-1 actual IC50 (in parentheses)

T2 sequence (P11309 whole entry): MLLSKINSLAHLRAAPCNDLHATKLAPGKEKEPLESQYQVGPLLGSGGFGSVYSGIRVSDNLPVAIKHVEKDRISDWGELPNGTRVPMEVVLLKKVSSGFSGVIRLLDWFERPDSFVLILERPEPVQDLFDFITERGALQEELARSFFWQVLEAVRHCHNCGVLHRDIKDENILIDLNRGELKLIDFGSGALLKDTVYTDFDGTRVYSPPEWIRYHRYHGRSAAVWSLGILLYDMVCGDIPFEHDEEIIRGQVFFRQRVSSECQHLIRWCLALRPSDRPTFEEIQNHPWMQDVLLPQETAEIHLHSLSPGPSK
T1 sequence (P42345 1360-2549 limits assumed): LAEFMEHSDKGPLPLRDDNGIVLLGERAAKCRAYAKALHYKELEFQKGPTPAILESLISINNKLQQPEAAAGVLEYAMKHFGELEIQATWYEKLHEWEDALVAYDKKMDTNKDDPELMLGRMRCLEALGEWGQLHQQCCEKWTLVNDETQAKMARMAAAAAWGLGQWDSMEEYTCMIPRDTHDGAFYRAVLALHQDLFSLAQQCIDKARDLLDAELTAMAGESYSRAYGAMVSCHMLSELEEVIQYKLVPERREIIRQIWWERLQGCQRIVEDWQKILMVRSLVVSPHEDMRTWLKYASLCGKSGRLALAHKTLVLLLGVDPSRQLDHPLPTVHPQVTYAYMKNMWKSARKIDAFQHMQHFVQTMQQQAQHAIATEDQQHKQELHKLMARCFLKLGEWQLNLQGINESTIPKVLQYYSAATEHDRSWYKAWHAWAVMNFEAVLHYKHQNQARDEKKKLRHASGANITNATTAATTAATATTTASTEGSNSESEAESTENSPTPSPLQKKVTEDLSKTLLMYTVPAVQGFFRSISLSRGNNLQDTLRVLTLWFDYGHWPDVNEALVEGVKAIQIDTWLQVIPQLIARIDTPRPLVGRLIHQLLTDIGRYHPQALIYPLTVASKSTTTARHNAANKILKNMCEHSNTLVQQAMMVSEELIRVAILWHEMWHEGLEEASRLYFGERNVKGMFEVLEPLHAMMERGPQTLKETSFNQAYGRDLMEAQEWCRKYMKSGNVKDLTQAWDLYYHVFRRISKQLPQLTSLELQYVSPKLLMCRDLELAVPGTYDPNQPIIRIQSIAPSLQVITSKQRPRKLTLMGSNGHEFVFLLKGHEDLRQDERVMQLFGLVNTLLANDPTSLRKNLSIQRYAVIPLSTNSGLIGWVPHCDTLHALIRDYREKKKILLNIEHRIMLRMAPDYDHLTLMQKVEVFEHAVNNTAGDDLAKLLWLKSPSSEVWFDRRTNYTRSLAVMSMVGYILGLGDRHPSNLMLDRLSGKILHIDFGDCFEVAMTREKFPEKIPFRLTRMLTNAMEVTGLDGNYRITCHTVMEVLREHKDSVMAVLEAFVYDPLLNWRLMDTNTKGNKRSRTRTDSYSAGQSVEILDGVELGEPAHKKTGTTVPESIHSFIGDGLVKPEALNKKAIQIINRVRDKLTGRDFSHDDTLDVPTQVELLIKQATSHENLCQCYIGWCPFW
T3 sequence (P42336 whole entry): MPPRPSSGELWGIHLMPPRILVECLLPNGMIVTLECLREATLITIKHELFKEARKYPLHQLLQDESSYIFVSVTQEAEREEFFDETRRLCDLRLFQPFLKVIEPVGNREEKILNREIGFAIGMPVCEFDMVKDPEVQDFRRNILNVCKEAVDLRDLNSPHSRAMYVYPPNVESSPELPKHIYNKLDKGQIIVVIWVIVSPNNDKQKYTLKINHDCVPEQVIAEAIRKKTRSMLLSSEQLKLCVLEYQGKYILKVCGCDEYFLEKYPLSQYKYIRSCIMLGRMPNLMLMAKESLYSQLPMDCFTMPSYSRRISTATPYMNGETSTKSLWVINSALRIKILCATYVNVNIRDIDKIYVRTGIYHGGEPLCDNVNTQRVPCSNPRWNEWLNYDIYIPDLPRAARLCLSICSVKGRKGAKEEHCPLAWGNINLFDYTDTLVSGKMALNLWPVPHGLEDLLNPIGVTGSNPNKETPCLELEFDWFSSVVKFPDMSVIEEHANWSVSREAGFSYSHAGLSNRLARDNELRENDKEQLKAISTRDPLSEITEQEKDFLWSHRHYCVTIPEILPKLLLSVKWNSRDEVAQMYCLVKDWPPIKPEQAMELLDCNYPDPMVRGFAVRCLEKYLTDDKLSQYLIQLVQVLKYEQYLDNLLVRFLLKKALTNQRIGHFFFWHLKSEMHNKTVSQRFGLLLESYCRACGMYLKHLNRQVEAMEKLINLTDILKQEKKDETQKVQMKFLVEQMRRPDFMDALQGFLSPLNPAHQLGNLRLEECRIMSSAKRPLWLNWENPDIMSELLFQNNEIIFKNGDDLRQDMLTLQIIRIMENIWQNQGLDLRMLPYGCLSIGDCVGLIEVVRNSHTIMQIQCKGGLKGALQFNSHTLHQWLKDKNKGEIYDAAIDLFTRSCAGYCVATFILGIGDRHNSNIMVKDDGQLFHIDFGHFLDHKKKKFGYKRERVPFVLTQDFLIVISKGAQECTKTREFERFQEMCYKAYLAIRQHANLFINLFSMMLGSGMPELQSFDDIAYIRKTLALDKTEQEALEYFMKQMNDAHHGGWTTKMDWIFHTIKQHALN
T3 sequence (P27986 whole entry partner): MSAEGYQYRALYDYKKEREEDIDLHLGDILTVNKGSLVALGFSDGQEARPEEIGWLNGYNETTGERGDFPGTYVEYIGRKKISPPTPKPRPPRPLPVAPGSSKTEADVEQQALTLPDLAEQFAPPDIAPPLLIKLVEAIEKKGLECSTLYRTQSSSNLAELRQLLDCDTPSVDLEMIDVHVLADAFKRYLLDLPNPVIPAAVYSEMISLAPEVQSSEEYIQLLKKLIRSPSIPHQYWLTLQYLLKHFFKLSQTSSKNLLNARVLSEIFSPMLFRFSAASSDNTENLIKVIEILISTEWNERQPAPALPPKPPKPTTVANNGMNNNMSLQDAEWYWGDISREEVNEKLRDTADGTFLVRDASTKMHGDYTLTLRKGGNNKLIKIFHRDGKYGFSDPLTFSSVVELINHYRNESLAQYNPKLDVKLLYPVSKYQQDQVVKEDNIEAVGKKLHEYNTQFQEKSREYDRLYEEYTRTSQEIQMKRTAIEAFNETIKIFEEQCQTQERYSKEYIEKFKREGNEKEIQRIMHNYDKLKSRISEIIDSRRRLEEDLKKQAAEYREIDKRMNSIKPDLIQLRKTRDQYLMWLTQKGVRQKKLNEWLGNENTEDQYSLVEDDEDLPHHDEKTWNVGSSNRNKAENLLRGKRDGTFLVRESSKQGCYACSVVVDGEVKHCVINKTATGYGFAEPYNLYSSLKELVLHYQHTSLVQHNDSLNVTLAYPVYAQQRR

| SMILES | pIC50 [1, 9] | pIC50 [2, 11] | pIC50 [3, 12] | pIC50 [3, 13] | also measured |
| --- | --- | --- | --- | --- | --- |
| COc1ncc2cc1NS(=O)(=O)c1cccc(c1)C(=O)NC[C@@H]1CCN(C1)c1ncnc3c1SC2=C3C [compound 94] | – | – | – | – | pIC50 [1, 4]: < 6.00; pIC50 [2, 5]: 7.19; pIC50 [2, 6]: > 7.00; pIC50 [3, 7]: 7.59; pIC50 [3, 8]: > 7.00 |
| COc1ncc2cc1NS(=O)(=O)c1cccc(c1)C(=O)NCc1cncc(c1)-c1cnc3ccc-2cn13 [compound 30] | > 7.00 | < 6.00 | > 7.00 | 7.96 | pIC50 [1, 10]: 7.31 |
| COc1ncc2cc1NS(=O)(=O)c1cccc(c1)C(=O)NCc1cncc(c1)-c1ncnc3c1SC2=C3C [compound 56] | 6.00 to 7.00 | > 7.00 | > 7.00 | 7.89 | pIC50 [2, 14]: 7.25 |
| COc1ncc2cc1NS(=O)(=O)c1cccc(c1)C(=O)NCCn1cc(cn1)-c1ncnc3c1SC2=C3C [compound 57] | 6.00 to 7.00 | 6.00 to 7.00 | > 7.00 | 9.10 | – |
| COc1ncc2cc1NS(=O)(=O)c1cccc(c1)C(=O)N[C@@H]1CCCN(C1)c1ncnc3c1SC2=C3 [compound 76] | – | 6.00 to 7.00 | < 6.00 | – | – |
| COc1ncc2cc1NS(=O)(=O)c1cccc(c1)C(=O)NCc1cc(ccn1)-c1cnc3sc-2nn13 [compound 96] | – | – | – | – | pIC50 [1, 4]: 6.00 to 7.00; pIC50 [3, 7]: 8.06; pIC50 [3, 8]: > 7.00 |
| COc1ncc2cc1NS(=O)(=O)c1cc(c(F)cc1F)C(=O)NCc1cncc(c1)-c1ccnc3ccc-2nc13 [compound 71] | > 7.00 | < 6.00 | > 7.00 | 9.82 | pIC50 [1, 10]: 7.60 |
| COc1ncc2cc1NS(=O)(=O)c1cccc(c1)C(=O)N[C@H]1CCCN(C1)c1ncnc3c1SC2=C3 [compound 75] | – | < 6.00 | < 6.00 | – | – |
| COc1ncc2cc1NS(=O)(=O)c1cc(c(F)cc1F)C(=O)NCc1cccc(c1)-c1ccnc3ccc-2cc13 [compound 29] | 6.00 to 7.00 | < 6.00 | > 7.00 | 8.22 | – |
| COc1ncc2cc1NS(=O)(=O)c1cccc(c1)C(=O)NCCN1CC=C(CC1)c1cnc3ccc-2nn13 [compound 23] | > 7.00 | < 6.00 | > 7.00 | 8.30 | pIC50 [1, 10]: 7.66 |
| COc1ncc2cc1NS(=O)(=O)c1cccc(c1)C(=O)NC[C@@H]1CN(CCO1)c1ncnc3c1SC2=C3 [compound 66] | < 6.00 | > 7.00 | 6.00 to 7.00 | – | pIC50 [2, 14]: 7.06 |
| COc1ncc2cc1NS(=O)(=O)c1cccc(c1)C(=O)NC[C@@H]1CCCN(C1)c1ncnc3c1SC2=C3 [compound 84] | < 6.00 | 6.00 to 7.00 | < 6.00 | – | – |
| COc1ncc2cc1NS(=O)(=O)c1cccc(c1)C(=O)NCc1cncc(c1)-c1nc(C(C)C)nc3c1SC2=C3 [compound 60] | < 6.00 | < 6.00 | < 6.00 | – | – |
| COc1ncc2cc1NS(=O)(=O)c1cccc(c1)C(=O)NC[C@@H]1CN(CCO1)c1ncnc3c1SC2=C3C [compound 91] | – | – | – | – | pIC50 [1, 4]: 6.00 to 7.00; pIC50 [2, 5]: 7.33; pIC50 [2, 6]: > 7.00; pIC50 [3, 7]: 8.00; pIC50 [3, 8]: > 7.00 |
| COc1ncc2cc1NS(=O)(=O)c1ccc(F)c(c1)C(=O)NCc1cncc(c1)-c1ncnc3c1SC2=C3 [compound 48] | < 6.00 | > 7.00 | > 7.00 | 7.32 | pIC50 [2, 14]: 7.28 |
| O=C1NCc2cccc(c2)-c2cnn3ccc(nc23)-c2cnc(O)c(c2)NS(=O)(=O)c2cccc1c2 [compound 85] | – | – | – | – | pIC50 [1, 4]: < 6.00; pIC50 [2, 6]: < 6.00; pIC50 [3, 8]: 6.00 to 7.00 |
| COc1ncc2cc1NS(=O)(=O)c1cccc(c1)C(=O)NCc1cc(F)cc(c1)-c1ncnc3c1SC2=C3 [compound 72] | < 6.00 | 6.00 to 7.00 | < 6.00 | – | – |

| SMILES | pIC50 [1, 9] | pIC50 [2, 11] | pIC50 [3, 12] | pIC50 [3, 13] | also measured |
| --- | --- | --- | --- | --- | --- |
| COc1ncc2cc1NS(=O)(=O)c1cccc(c1)C(=O)NCC1CCN(CC1)c1ncnc3cc-2sc13 [compound 38] | < 6.00 | < 6.00 | < 6.00 | – | – |
| COc1ncc2cc1NS(=O)(=O)c1cccc(c1)C(=O)NCc1cncc(c1)-c1cnn3ccc-2nc13 [compound 11] | > 7.00 | < 6.00 | > 7.00 | 9.40 | pIC50 [1, 10]: 8.40 |
| COc1ncc2cc1NS(=O)(=O)c1cccc(c1)C(=O)NCC1=CC=C(S1)c1ccnc3c1SC2=C3 [compound 80] | < 6.00 | > 7.00 | 6.00 to 7.00 | – | pIC50 [2, 14]: 7.82 |
| CC(C)Oc1ncc2cc1NS(=O)(=O)c1cccc(c1)C(=O)NCCn1cc(cn1)-c1ncnc3c1SC2=C3 [compound 59] | < 6.00 | < 6.00 | < 6.00 | – | – |
| COc1ncc2cc1NS(=O)(=O)c1cccc(c1)C(=O)NCCn1cc(cn1)-c1ccnc3ccc-2cc13 [compound 19] | > 7.00 | < 6.00 | > 7.00 | 8.40 | pIC50 [1, 10]: 7.68 |
| COc1ncc2cc1NS(=O)(=O)c1cccc(c1)C(=O)NCC1=CC=C(S1)c1ccnc3c1SC2=C3C [compound 101] | – | – | – | – | pIC50 [1, 4]: < 6.00; pIC50 [2, 5]: 7.68; pIC50 [2, 6]: > 7.00; pIC50 [3, 7]: 7.59; pIC50 [3, 8]: > 7.00 |
| COc1ncc2cc1NS(=O)(=O)c1cccc(c1)C(=O)NCC1=C(C)C=C(S1)c1ncnc3c1SC2=C3 [compound 88] | – | – | – | – | pIC50 [1, 4]: < 6.00; pIC50 [2, 5]: 7.16; pIC50 [2, 6]: > 7.00; pIC50 [3, 8]: 6.00 to 7.00 |
| COc1ncc2cc1NS(=O)(=O)c1cccc(c1)C(=O)NC[C@@H]1CCN(C1)c1ncnc3c1SC2=C3 [compound 86] | – | – | – | – | pIC50 [1, 4]: < 6.00; pIC50 [2, 6]: 6.00 to 7.00; pIC50 [3, 8]: < 6.00 |
| COc1ncc2cc1NS(=O)(=O)c1cccc(c1)C(=O)NCc1cc(F)cc(c1)-c1ncnc3c1SC2=C3C [compound 92] | – | – | – | – | pIC50 [1, 4]: < 6.00; pIC50 [2, 6]: < 6.00; pIC50 [3, 7]: 7.82; pIC50 [3, 8]: > 7.00 |
| COc1ncc2cc1NS(=O)(=O)c1cccc(c1)C(=O)NCc1cc(ccn1)-c1ccnc3ccc-2cc13 [compound 15] | 6.00 to 7.00 | < 6.00 | > 7.00 | 7.70 | – |
| COc1ncc2cc1NS(=O)(=O)c1cccc(c1)C(=O)NCC1=CC=C(S1)c1c(C#N)cnc3c1SC2=C3 [compound 73] | < 6.00 | > 7.00 | < 6.00 | – | pIC50 [2, 14]: 7.35 |
| COc1ncc2cc1NS(=O)(=O)c1cc(c(F)cc1F)C(=O)NCc1cncc(c1)-c1ncnc3c1SC2=C3 [compound 44] | < 6.00 | < 6.00 | 6.00 to 7.00 | – | – |
| COc1ncc2cc1NS(=O)(=O)c1cccc(c1)C(=O)NCc1cncc(c1)-c1c[nH]c3ncc-2cc13 [compound 20] | 6.00 to 7.00 | < 6.00 | > 7.00 | 7.10 | – |
| COc1ncc2cc1NS(=O)(=O)c1cccc(c1)C(=O)NCC1=CC=C(S1)c1ccnc3[nH]c-2cc13 [compound 78] | < 6.00 | 6.00 to 7.00 | 6.00 to 7.00 | – | – |
| COc1ncc2cc1NS(=O)(=O)c1ccc(F)c(c1)C(=O)NCC1=CC=C(S1)c1ncnc3c1SC2=C3C [compound 90] | – | – | – | – | pIC50 ([1]; read-out: mTOR IC50 (in parentheses)): 7.25; pIC50 [1, 4]: > 7.00; pIC50 [2, 5]: 7.57; pIC50 [2, 6]: > 7.00; pIC50 [3, 7]: 8.74; pIC50 [3, 8]: > 7.00 |
| COc1ncc2cc1NS(=O)(=O)c1cccc(c1)C(=O)NCc1nc(cs1)-c1ncnc3c1SC2=C3 [compound 79] | < 6.00 | < 6.00 | 6.00 to 7.00 | – | – |
| COc1ncc2cc1NS(=O)(=O)c1cccc(c1)C(=O)NCc1cc(cs1)-c1ncnc3c1SC2=C3 [compound 74] | – | 6.00 to 7.00 | < 6.00 | – | – |
